One assay addresses T1, FSHR (Homo sapiens, UniProt P23945).
T1 construct: expressed in transfected cells; host or cells: CHO (Cho-FSHR-LUC-1-1-43)
T1 sequence (P23945 18-695): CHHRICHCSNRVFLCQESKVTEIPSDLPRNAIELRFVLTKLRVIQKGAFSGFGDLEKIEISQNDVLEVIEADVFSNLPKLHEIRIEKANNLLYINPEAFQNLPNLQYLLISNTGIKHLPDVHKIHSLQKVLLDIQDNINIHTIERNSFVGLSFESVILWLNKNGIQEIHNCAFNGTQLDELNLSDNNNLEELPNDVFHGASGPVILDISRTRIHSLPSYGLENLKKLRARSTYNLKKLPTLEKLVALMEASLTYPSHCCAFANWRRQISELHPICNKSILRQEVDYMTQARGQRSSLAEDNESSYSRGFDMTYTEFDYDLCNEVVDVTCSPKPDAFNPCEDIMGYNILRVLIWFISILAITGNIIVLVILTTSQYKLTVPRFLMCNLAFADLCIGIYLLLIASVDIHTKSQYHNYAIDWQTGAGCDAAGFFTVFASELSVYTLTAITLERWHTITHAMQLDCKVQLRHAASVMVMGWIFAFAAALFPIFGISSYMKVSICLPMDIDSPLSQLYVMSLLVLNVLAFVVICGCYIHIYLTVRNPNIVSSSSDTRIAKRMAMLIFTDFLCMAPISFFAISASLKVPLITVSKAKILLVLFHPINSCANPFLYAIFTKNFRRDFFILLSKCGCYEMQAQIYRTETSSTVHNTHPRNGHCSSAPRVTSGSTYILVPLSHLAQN
The assay is described as follows: EC50 of cyclic AMP production in CHO FSHR cells + EC20 FSH (Assay A). The assay is classed as cell-based. The settings on record: CHO FSHR cells + EC20 FSH, cAMP HTRF; read-out: Assay A: EC50 of cyclic AMP production. The method in brief:
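Cho-FSHR-LUC cells were exposed to compound dilution series with EC20 FSH ([…]) and 200 μM IBMX for 1 h at 37° C. cAMP was read by HTRF (665/620 nm ratio). Effects are percent of the maximal FSH standard response.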
(Time-resolved FRET reads energy transfer from a long-lived donor to a nearby acceptor.)

Assay [1] addresses T2, follicle-stimulating hormone (FSH) receptor (Rattus norvegicus, UniProt P20395).
T2 construct: endogenous in cells; host or cells: primary rat granulosa cells
T2 sequence (P20395 18-692): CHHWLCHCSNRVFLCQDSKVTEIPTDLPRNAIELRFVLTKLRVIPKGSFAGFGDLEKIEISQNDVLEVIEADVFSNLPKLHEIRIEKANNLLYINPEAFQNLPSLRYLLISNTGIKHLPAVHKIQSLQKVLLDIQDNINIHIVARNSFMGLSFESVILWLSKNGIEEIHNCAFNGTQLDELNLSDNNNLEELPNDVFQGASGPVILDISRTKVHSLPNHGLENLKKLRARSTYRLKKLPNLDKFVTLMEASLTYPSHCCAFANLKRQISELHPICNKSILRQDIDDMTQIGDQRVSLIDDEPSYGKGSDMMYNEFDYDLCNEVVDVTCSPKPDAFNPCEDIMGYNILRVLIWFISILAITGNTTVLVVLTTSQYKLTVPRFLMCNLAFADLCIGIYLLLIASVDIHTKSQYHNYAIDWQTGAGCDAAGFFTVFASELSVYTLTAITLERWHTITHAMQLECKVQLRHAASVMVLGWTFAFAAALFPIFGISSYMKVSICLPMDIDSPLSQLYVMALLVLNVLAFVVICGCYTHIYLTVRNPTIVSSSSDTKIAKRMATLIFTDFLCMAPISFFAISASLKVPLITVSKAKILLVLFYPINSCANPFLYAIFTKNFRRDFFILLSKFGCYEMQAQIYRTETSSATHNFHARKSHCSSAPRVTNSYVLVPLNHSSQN
The assay is described as follows: Rat granulosa EC50 FSH (Assay B). The settings on record: for EC50: rat granulosa cells, read-out: Assay B: Rat granulosa EC50 FSH. The assay is classed as cell-based. The protocol: Rat Granulosa EC50 FSH (Assay B)
The assay was performed pursuant to the teaching of Yanofsky et al. (2006) Allosteric activation of the follicle-stimulating hormone (FSH) receptor by selective, nonpeptide agonists (JBC 281(19): 13226-13233, which is incorporated by reference in the disclosure of the invention).

In general, EC50 refers to the concentration giving half of the maximal effect. Turning to `COc1cc2c(cc1-c1ccn(C)c1)-c1c(c(C(=O)N3CCN(C(=O)OC(C)(C)C)CC3(C)C)nn1-c1ccsc1)CO2` [Compound 157, 4-[7-Methoxy-8-(1-methyl-1H-pyrrol-3-yl)-1-thiophen-3-yl-1,4-dihydro-chromeno[4,3-c]pyrazole-3-carbonyl]-3,3-dimethyl-piperazine-1-carboxylic acid tert-butyl ester], the EC50 (on FSHR; in assay [1]) was 100 to 1000 nM each time.

Regarding `[2H]C([2H])([2H])OC1(CN(C(=O)c2nn(-c3ccsc3)c3c2COc2cc(OC)c(-c4ccn(C)c4)cc2-3)C([2H])([2H])[2H])COC1` [Compound 168], the concentration for a half-maximal effect (EC50) on FSHR is under 100 nM; in assay [1], 100 to 1000 nM.

On to `COc1cc2c(cc1CC(C)C)-c1c(c(C(=O)N3CCCN(C(=O)C4CCCO4)CC3)nn1-c1ccsc1)CO2` (stereo not shown) [Compound 21, (8-Isobutyl-7-methoxy-1-thiophen-3-yl-1,4-dihydro-chromeno[4,3-c]pyrazol-3-yl)-[4-(tetrahydro-furan-2-carbonyl)-[1,4]diazepan-1-yl]-methanone], for which the EC50 is 100 to 1000 nM at FSHR and over 5000 nM in assay [1].

Consider `COc1cc2c(cc1-c1ccns1)-c1c(c(C(=O)N(C)C(C)(C)C)nn1-c1ccsc1)CO2` [Compound 105, 8-Isothiazol-5-yl-7-methoxy-1-thiophen-3-yl-1,4-dihydro-chromeno[4,3-c]pyrazole-3-carboxylic acid tert-butyl-methyl-amide], for which the concentration for a half-maximal effect (EC50) (on FSHR; in assay [1]) was under 100 nM throughout.

On to `COc1cc2c(cc1-c1ccnn1C)-c1c(c(C(=O)N3CCOCC3(C)C)nn1-c1ccsc1)CO2` [Compound 108, (3,3-Dimethyl-morpholin-4-yl)-[7-methoxy-8-(2-methyl-2H-pyrazol-3-yl)-1-thiophen-3-yl-1,4-dihydro-chromeno[4,3-c]pyrazol-3-yl]-methanone], for which the EC50 is under 100 nM at FSHR and 1000 to 5000 nM in assay [1].

Turning to `[2H]C([2H])([2H])N(C(=O)c1nn(-c2ccsc2)c2c1COc1cc(OC)c(-c3ccn(C)n3)cc1-2)C1(C)COC1` [Compound 116], the half-maximal effective concentration (EC50) at FSHR was under 100 nM; in assay [1], 1000 to 5000 nM.

Turning to `[2H]C([2H])([2H])OCC1(N(C(=O)c2nn(-c3ccsc3)c3c2COc2cc(OC)c(CC(C)C)cc2-3)C([2H])([2H])[2H])COC1` [Compound 162], the EC50 at FSHR was under 100 nM; in assay [1], 100 to 1000 nM.

As to `COc1cc2c(cc1C1CCOC1)-c1c(c(C(=O)N(C)C(C)(C)C)nn1-c1ccsc1)CO2` (stereo not shown) [Compound 194, 7-Methoxy-8-(tetrahydro-furan-3-yl)-1-thiophen-3-yl-1,4-dihydro-chromeno[4,3-c]pyrazole-3-carboxylic Acid tert-butyl-methyl-amide], the figures for the 50% effective concentration (EC50) (at FSHR; in assay [1]) were under 100 nM and 100 to 1000 nM, respectively.

On to `COc1cc2c(cc1-c1cn[nH]c1)-c1c(c(C(=O)N(C)C(C)(C)C)nn1-c1ccsc1)CO2` [Compound 1, 7-Methoxy-8-(1H-pyrazol-4-yl)-1-thiophen-3-yl-1,4-dihydro-chromeno[4,3-c]pyrazole-3-carboxylic Acid tert-butyl-methyl-amide], for which the EC50 (on FSHR; in assay [1]) was under 100 nM throughout.

Turning to `[2H]C([2H])([2H])N(C(=O)c1nn(-c2ccsc2)c2c1COc1cc(OC)c(CC(C)C)cc1-2)C1(C)COC1` [Compound 163], the results for the concentration giving a half-maximal response (EC50) (at FSHR; in assay [1]) were under 100 nM and 100 to 1000 nM, respectively.

For `COCOCCn1cc(-c2cc3c(cc2OC)OCc2c(C(=O)N4CCOCC4(C)C)nn(-c4ccsc4)c2-3)cn1` [Compound 205, (3,3-Dimethyl-morpholin-4-yl)-{7-methoxy-8-[1-(2-methoxymethoxy-ethyl)-1H-pyrazol-4-yl]-1-thiophen-3-yl-1,4-dihydro-chromeno[4,3-c]pyrazol-3-yl}-methanone], the EC50 (at FSHR; in assay [1]) was under 100 nM each time.

Take `COc1cc2c(cc1-c1ccn(C)n1)-c1c(c(C(=O)N3CCOCC34COC4)nn1-c1ccsc1)CO2` [Compound 154, (2,8-Dioxa-5-aza-spiro[3.5]non-5-yl)-[7-methoxy-8-(1-methyl-1H-pyrazol-3-yl)-1-thiophen-3-yl-1,4-dihydro-chromeno[4,3-c]pyrazol-3-yl]-methanone]: the half-maximal effective concentration (EC50) at FSHR is under 100 nM; in assay [1] it was 1000 to 5000 nM.

In the case of `COc1cc2c(cc1-c1ncco1)-c1c(c(C(=O)N(C)C(C)(C)C)nn1-c1ccsc1)CO2` [Compound 132, 7-Methoxy-8-oxazol-2-yl-1-thiophen-3-yl-1,4-dihydro-chromeno[4,3-c]pyrazole-3-carboxylic acid tert-butyl-methyl-amide], the EC50 on FSHR is under 100 nM; in assay [1] it was 100 to 1000 nM.

As for `COc1cc2c(cc1-c1c(C)nn(C)c1C)-c1c(c(C(=O)N3CCOCC3(C)C)nn1-c1ccsc1)CO2` [Compound 121, (3,3-Dimethyl-morpholin-4-yl)-[7-methoxy-1-thiophen-3-yl-8-(1,3,5-trimethyl-1H-pyrazol-4-yl)-1,4-dihydro-chromeno[4,3-c]pyrazol-3-yl]-methanone], the EC50 at FSHR was under 100 nM; in assay [1] it was over 5000 nM.

In the case of `COc1cc2c(cc1C=C(C)C)-c1c(c(C(=O)NCCN3CCOC3=O)nn1-c1ccsc1)CO2` [Compound 13, 7-Methoxy-8-(2-methyl-propenyl)-1-thiophen-3-yl-1,4-dihydro-chromeno[4,3-c]pyrazole-3-carboxylic acid [2-(2-oxo-oxazolidin-3-yl)-ethyl]-amide], the 50% effective concentration (EC50) at FSHR is 100 to 1000 nM; in assay [1], 1000 to 5000 nM.

In the case of `COc1cc2c(cc1SC(C)C)-c1c(c(C(=O)N(C)C(C)(C)C)nn1-c1ccsc1)CO2` [Compound 52, 8-isopropylsulfanyl-7-methoxy-1-thiophen-3-yl-1,4-dihydro-chromeno[4,3-c]pyrazole-3-carboxylic Acid tert-butyl-methyl-amide], the values for the EC50 (at FSHR; in assay [1]) were under 100 nM and 100 to 1000 nM, respectively.

As to `COc1cc2c(cc1-c1ccn(C)n1)-c1c(c(C(=O)N3CCOCC3(C)C)nn1-c1ccsc1)CO2` [Compound 94, (3,3-Dimethyl-morpholin-4-yl)-[7-methoxy-8-(1-methyl-1H-pyrazol-3-yl)-1-thiophen-3-yl-1,4-dihydro-chromeno[4,3-c]pyrazol-3-yl]-methanone], the EC50 at FSHR was under 100 nM; in assay [1] it was 100 to 1000 nM.

Regarding `COc1cc2c(cc1-c1cccnc1)-c1c(c(C(=O)N(C)C(C)(C)C)nn1-c1ccsc1)CO2` [Compound 2, 7-Methoxy-8-pyridin-3-yl-1-thiophen-3-yl-1,4-dihydro-chromeno[4,3-c]pyrazole-3-carboxylic Acid tert-butyl-methyl-amide], the concentration for a half-maximal effect (EC50) at FSHR was under 100 nM. Further, the Emax at 30 µM in assay [1] (read-out: Assay B: percental effect (response) relative to the maximum response of the FSH standard) came to 54%.

`COc1cc2c(cc1-c1cc(C)nn1C)-c1c(c(C(=O)N3CCOCC3(C)C)nn1-c1ccsc1)CO2` [Compound 122, (3,3-Dimethyl-morpholin-4-yl)-[8-(2,5-dimethyl-2H-pyrazol-3-yl)-7-methoxy-1-thiophen-3-yl-1,4-dihydro-chromeno[4,3-c]pyrazol-3-yl]-methanone]: the EC50 at FSHR is under 100 nM; in assay [1], over 5000 nM.

`COc1cc2c(cc1OC(C)C)-c1c(c(C(=O)N(C)C(C)(C)C)nn1-c1ccsc1)CO2` [Compound 19, 8-Isopropoxy-7-methoxy-1-thiophen-3-yl-1,4-dihydro-chromeno[4,3-c]pyrazole-3-carboxylic Acid tert-butyl-methyl-amide]: the EC50 at FSHR was under 100 nM; in assay [1], 1000 to 5000 nM.

For the origin of these results see US11365199B2, “Pyrazole compounds as modulators of FSHR and uses thereof” (Merck Patent GmbH, priority 2013, dated 2022).
